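These data come from cells grown in 96-well plates and exposed to compound for 48 hours at five concentrations. TGI marks complete inhibition of growth.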
Assays:
Experiment in all cases: NCI anticancer screen, dose series, 48 h
MDA-MB-231 breast = tested on: MDA-MB-231 breast
UACC-62 melanoma = tested on: UACC-62 melanoma
NCI-H522 lung = tested on: NCI-H522 lung
BT-549 breast = tested on: BT-549 breast
TK-10 renal = tested on: TK-10 renal
SF-295 CNS = tested on: SF-295 CNS
OVCAR-5 ovarian = tested on: OVCAR-5 ovarian
IGROV1 ovarian = tested on: IGROV1 ovarian
HCC-2998 colon = tested on: HCC-2998 colon
T-47D breast = tested on: T-47D breast
HS 578T breast = tested on: HS 578T breast
NCI/ADR-RES ovarian = tested on: NCI/ADR-RES ovarian
OVCAR-8 ovarian = tested on: OVCAR-8 ovarian
OVCAR-3 ovarian = tested on: OVCAR-3 ovarian
DU-145 prostate = tested on: DU-145 prostate
HOP-62 NSCLC = tested on: HOP-62 NSCLC
CAKI-1 renal = tested on: CAKI-1 renal
EKVX NSCLC = tested on: EKVX NSCLC
M14 melanoma = tested on: M14 melanoma
MCF7 breast = tested on: MCF7 breast
MOLT-4 leukemia = tested on: MOLT-4 leukemia
HT29 colon = tested on: HT29 colon
RXF 393 renal = tested on: RXF 393 renal
SNB-19 CNS = tested on: SNB-19 CNS
K-562 leukemia = tested on: K-562 leukemia
786-0 renal = tested on: 786-0 renal
SF-268 CNS = tested on: SF-268 CNS
OVCAR-4 ovarian = tested on: OVCAR-4 ovarian
SNB-75 CNS = tested on: SNB-75 CNS
SW-620 colon = tested on: SW-620 colon
NCI-H23 lung = tested on: NCI-H23 lung
HCT-15 colon = tested on: HCT-15 colon
MALME-3M melanoma = tested on: MALME-3M melanoma
SK-MEL-28 melanoma = tested on: SK-MEL-28 melanoma
SN12C renal = tested on: SN12C renal
SR leukemia = tested on: SR leukemia
SF-539 CNS = tested on: SF-539 CNS
LOX IMVI melanoma = tested on: LOX IMVI melanoma
SK-MEL-2 melanoma = tested on: SK-MEL-2 melanoma
SK-MEL-5 melanoma = tested on: SK-MEL-5 melanoma
NCI-H226 lung = tested on: NCI-H226 lung
U251 CNS = tested on: U251 CNS
HCT-116 colon = tested on: HCT-116 colon
MDA-MB-435 = tested on: MDA-MB-435
KM12 colon = tested on: KM12 colon
NCI-H460 lung = tested on: NCI-H460 lung
ACHN renal = tested on: ACHN renal
UACC-257 melanoma = tested on: UACC-257 melanoma
RPMI-8226 leukemia = tested on: RPMI-8226 leukemia
COLO 205 colon = tested on: COLO 205 colon
HL-60(TB) leukemia = tested on: HL-60(TB) leukemia
SK-OV-3 ovarian = tested on: SK-OV-3 ovarian
PC-3 prostate = tested on: PC-3 prostate
CCRF-CEM leukemia = tested on: CCRF-CEM leukemia
MDA-N = tested on: MDA-N
A549 NSCLC = tested on: A549 NSCLC
HOP-92 NSCLC = tested on: HOP-92 NSCLC
UO-31 renal = tested on: UO-31 renal
A498 renal = tested on: A498 renal

`Cc1c2cnccc2c(C)c2c1[nH]c1ccc(O)cc12` was tested, and the TGI (MDA-MB-231 breast) was 4.13 µM, the TGI (UACC-62 melanoma) was > 10 µM and the TGI (NCI-H522 lung) was > 10 µM. For the same molecule, the TGI (BT-549 breast) was > 10 µM, the TGI (TK-10 renal) was > 10 µM and the TGI (SF-295 CNS) was 5.57 µM. For the same molecule, the TGI (OVCAR-5 ovarian) was > 10 µM, the TGI (IGROV1 ovarian) was > 10 µM and the TGI (HCC-2998 colon) was > 10 µM. The TGI (T-47D breast) was > 10 µM, the TGI (HS 578T breast) was > 10 µM and the TGI (NCI/ADR-RES ovarian) was 8.11 µM. It also gave a TGI (OVCAR-8 ovarian) of 3.41 µM, a TGI (OVCAR-3 ovarian) of 3.91 µM and a TGI (DU-145 prostate) of 5.83 µM. For the same molecule, the TGI (HOP-62 NSCLC) was 2.75 µM, the TGI (CAKI-1 renal) was > 10 µM and the TGI (EKVX NSCLC) was > 10 µM. For the same molecule, the TGI (M14 melanoma) was > 10 µM, the TGI (MCF7 breast) was 5.34 µM and the TGI (MOLT-4 leukemia) was > 10 µM. For the same molecule, the TGI (HT29 colon) was > 10 µM, the TGI (RXF 393 renal) was 7.24 µM and the TGI (SNB-19 CNS) was > 10 µM. For the same molecule, the TGI (K-562 leukemia) was > 10 µM, the TGI (786-0 renal) was 1.42 µM and the TGI (SF-268 CNS) was > 10 µM. The TGI (OVCAR-4 ovarian) was 8 µM, the TGI (SNB-75 CNS) was 8.09 µM and the TGI (SW-620 colon) was 7.03 µM. The TGI (NCI-H23 lung) was 8.25 µM, the TGI (HCT-15 colon) was > 10 µM and the TGI (MALME-3M melanoma) was 8.28 µM. For the same molecule, the TGI (SK-MEL-28 melanoma) was 9.94 µM, the TGI (SN12C renal) was 7.35 µM and the TGI (SR leukemia) was 2.88 µM. The TGI (SF-539 CNS) was 2.41 µM, the TGI (LOX IMVI melanoma) was 1.71 µM and the TGI (SK-MEL-2 melanoma) was > 10 µM. The TGI (SK-MEL-5 melanoma) was > 10 µM, the TGI (NCI-H226 lung) was > 10 µM and the TGI (U251 CNS) was > 10 µM. It also gave a TGI (HCT-116 colon) of 2.2 µM, a TGI (MDA-MB-435) of 8.73 µM and a TGI (KM12 colon) of 2.34 µM. For the same molecule, the TGI (NCI-H460 lung) was 2.63 µM, the TGI (ACHN renal) was 8.29 µM and the TGI (UACC-257 melanoma) was > 10 µM. The TGI (RPMI-8226 leukemia) was > 10 µM, the TGI (COLO 205 colon) was > 10 µM and the TGI (HL-60(TB) leukemia) was 2.98 µM. For the same molecule, the TGI (SK-OV-3 ovarian) was > 10 µM, the TGI (PC-3 prostate) was > 10 µM and the TGI (CCRF-CEM leukemia) was > 10 µM. For the same molecule, the TGI (MDA-N) was > 10 µM and the TGI (A549 NSCLC) was > 10 µM.
`C=C(c1ccccc1)C1ON(C)CCc2cc(OC)c(OC)cc21` (stereo not drawn) was tested, and the TGI (MDA-MB-231 breast) was > 100 µM, the TGI (UACC-62 melanoma) was > 100 µM and the TGI (NCI-H522 lung) was > 100 µM. For the same molecule, the TGI (BT-549 breast) was > 100 µM, the TGI (TK-10 renal) was > 100 µM and the TGI (SF-295 CNS) was > 100 µM. The TGI (OVCAR-5 ovarian) was > 100 µM, the TGI (IGROV1 ovarian) was > 100 µM and the TGI (HCC-2998 colon) was > 100 µM. The TGI (T-47D breast) was > 100 µM, the TGI (HOP-92 NSCLC) was > 100 µM and the TGI (HS 578T breast) was > 100 µM. For the same molecule, the TGI (NCI/ADR-RES ovarian) was > 100 µM, the TGI (OVCAR-8 ovarian) was > 100 µM and the TGI (OVCAR-3 ovarian) was > 100 µM. The TGI (DU-145 prostate) was > 100 µM, the TGI (HOP-62 NSCLC) was > 100 µM and the TGI (CAKI-1 renal) was > 100 µM. For the same molecule, the TGI (EKVX NSCLC) was > 100 µM, the TGI (M14 melanoma) was > 100 µM and the TGI (MCF7 breast) was 48.3 µM. The TGI (MOLT-4 leukemia) was > 100 µM, the TGI (HT29 colon) was > 100 µM and the TGI (RXF 393 renal) was > 100 µM. The TGI (SNB-19 CNS) was > 100 µM, the TGI (K-562 leukemia) was > 100 µM and the TGI (786-0 renal) was > 100 µM. For the same molecule, the TGI (SF-268 CNS) was > 100 µM, the TGI (SNB-75 CNS) was > 100 µM and the TGI (SW-620 colon) was > 100 µM. For the same molecule, the TGI (NCI-H23 lung) was > 100 µM, the TGI (HCT-15 colon) was > 100 µM and the TGI (MALME-3M melanoma) was > 100 µM. The TGI (UO-31 renal) was > 100 µM, the TGI (SK-MEL-28 melanoma) was > 100 µM and the TGI (SN12C renal) was > 100 µM. The TGI (SR leukemia) was > 100 µM, the TGI (SF-539 CNS) was > 100 µM and the TGI (LOX IMVI melanoma) was > 100 µM. The TGI (SK-MEL-5 melanoma) was 66 µM, the TGI (NCI-H226 lung) was > 100 µM and the TGI (U251 CNS) was > 100 µM. For the same molecule, the TGI (HCT-116 colon) was > 100 µM, the TGI (MDA-MB-435) was > 100 µM and the TGI (KM12 colon) was > 100 µM. The TGI (NCI-H460 lung) was > 100 µM, the TGI (ACHN renal) was > 100 µM and the TGI (UACC-257 melanoma) was > 100 µM. The TGI (RPMI-8226 leukemia) was > 100 µM, the TGI (A498 renal) was > 100 µM and the TGI (COLO 205 colon) was > 100 µM. For the same molecule, the TGI (HL-60(TB) leukemia) was > 100 µM, the TGI (SK-OV-3 ovarian) was > 100 µM and the TGI (PC-3 prostate) was > 100 µM. The TGI (CCRF-CEM leukemia) was > 100 µM, the TGI (MDA-N) was > 100 µM and the TGI (A549 NSCLC) was > 100 µM.

Reference: PubChem BioAssay (NCI)
